# In patent publication US20130143968A1, “Methods and compositions for the treatment of diabetes and related symtoms” (Emmaus Medical, Inc., priority 2011, published 2013):
# Experiments:
# [1] = HA1C lowering in a person ingesting L-glutamine; format: in vivo; conditions: one person, baseline 6.9%; 30 g per day as an aqueous solution, ingested; after three months
# Method: The person ingested 30 g of L-glutamine per day as an aqueous solution. After three months of L-glutamine administration, the person's Hb A1C level was measured at 6.1%.
# [2] = Triglyceride lowering in a person ingesting L-glutamine; format: in vivo; conditions: one person, baseline 500 mg/dL; 30 g per day as an aqueous solution, ingested; after three months
# Method: The person ingested 30 g of L-glutamine per day as an aqueous solution. After three months of L-glutamine administration, the person's triglyceride blood level was measured at 150 mg/dL.
compound,measurement,setting,value
NC(=O)CC[C@H](N)C(=O)O [L-glutamine],glycolated hemoglobin level (Hb A1C level),[1],6.1%
same,triglyceride blood level,[2],150 mg/dL
